The results in this text go back to US6828318B2 (priority 2000, dated 2004).

Data set [1] relates to male Sprague Dawley rats. Nature of the data set: Assessment of analgesia: sub-plantar formalin injection into the rat hind paw. It counts as in vivo. The following applies: rat formalin test, second phase t=5 to t=30 min, drug 20 min before formalin. The procedure: Analgesia testing was performed in male Sprague Dawley rats weighing 200-250 g. Drugs were administered 20 minutes prior to a sub-plantar injection of formalin into the right hind paw. The characteristic nociceptive behavioural responses elicited by this injection were rated on a scale from “0”=no effect through to “3”=effect of maximal intensity. As with side effect ratings, all observations were made blind to treatment condition. Ratings of nociception related behaviours were made in two time periods, one from the time of injection for a further five minutes (t=0 to t=5 min), and a second from t=5 min to t=30 min. The response to formalin injection in this model is biphasic, the first phase occurring during the first five minutes consists of a primary inflammation related response. The second phase, occurring over the subsequent 30 minutes is a delayed phase in which the phenomenon of “wind up” or neurally mediated hyperalgesia, is thought to occur. It is the second phase of response that has relevance to sciatica, diabetic neuropathy and other neuropathic chronic pain states. Responses to test compounds were assessed during this second phase from t=5 min to t=30 min. Data were analysed by means of Median tests followed by post hoc Bonferroni corrected Mann-Whitney U-tests.

Data set [2] concerns male Sprague Dawley rats. Nature of the data set: Assessment of side-effect liability (PCP syndrome), behavioural rating. Type of data set: in vivo, rat. The procedure: Side effect liability was assessed by utilising a standardised […] rating of behaviours recognised to be elicited by prototypical psychotomimetic NMDA receptor channel blockers such as phencyclidine and aptiganel (Cerestat™), similar to those reported by Martin et al., Life Sci 1979 24:1699-1703. Groups of eight male Sprague Dawley rats weighing 250-280 g. were placed in Plexiglass chambers and administered test compounds. After 20 minutes the percentage of rats in each group showing the behaviours noted in Table 2 was rated.
Ratings were plotted on ethograms to illustrate the profile of effect of each test compound.

Data set [3] deals with PCP site of the NMDA receptor. The experiment in a line: NMDA receptor binding: displacement of [3H]-MK-801 from rat cortical homogenates. The following applies: rat cortical membranes, 5 nM [3H]-MK-801, 10 μM glutamate, 10 μM glycine; read-out: IC50, potency to displace [3H]-MK-801 from rat cortical homogenates. An excerpt: The NMDA receptor contains several distinct binding domains that can regulate opening of the cationic channel. The phencyclidine (PCP) site of the NMDA receptor can be radiolabeled with [^3H]-(+)-5-methyl-10,11-dihydro-5H-dibenzo[a,d]cyclohepten-5,10-imine hydrogen maleate, [^3H-MK-801]. The following describes the procedure for determining the affinity of compounds for the PCP site in rat cortical membranes.
Frozen rat cortex, homogenized in 10 volumes of ice-cold 0.32-M sucrose is centrifuged at 1,000 g for 12 min and the supernatant stored on ice whilst the pellet is resuspended, rehomogenized and recentrifuged twice more. The three final supernatants are pooled and centrifuged at 30,000 g for 40 min at 4° C. to yield P2 pellets. These are resuspended in ice-cold distilled water, and centrifuged at 30,000 g for 50 min at 4° C. Following three further washes in distilled water, the P2 pellets are stored at −20° C. for at least 18 h. On the day of the assay, membrane pellets are thawed at room temperature, resuspended in ice-cold distilled water and centrifuged at 30,000 g for 20 min. The pellets are resuspended in 50-mM tris-HCl (pH:7.4) and recentrifuged twice more before being resuspended in tris-HCl for immediate use in the assay. Binding assays are performed at equilibrium in a total volume of 200 μL, containing [^3H]-MK-801 (5-nM final conc.), 10-μM glutamate, 10-μM glycine, 160 μL of membrane preparation and additional drugs where appropriate. Non-specific binding is determined using MK-801 (10-μM). The assay is incubated for 120 min at room temperature. The incubation is terminated by rapid filtration through Whatman GF/B filters (pre-soaked in 0.1% PEI solution). The assay tubes and filters are washed five times with 1 mL of ice-cold assay buffer. The filters are placed in poly-Q mini vials with approximately 5 mL of scintillation fluid. The vials are then shaken and left for at least 8 h before being counted on a liquid scintillation counter. To determine the free ligand concentration 3 aliquots (20 μL) of the [^3H]-MK-801 working solution are also counted. Concentration response data for drugs is analysed using a 4 parameter equation fitted by non-linear regression. This yields the half maximally effective drug concentration (IC50) and Hill coefficient.

Where a name gives a salt, the structure may show the parent alone.

For `CC12CC3CC(C)(C1)CC(N)(C3)C2` [Memantine, reference compound], the “Minimum effective dose on nociception related behaviours” value (from here on “Minimum effective dose”) with male Sprague Dawley rats [1] came out at 10 mg/kg. The “Elicitation of PCP syndrome (PCP related behaviours)” value (shortened to “Elicitation of PCP syndrome”) with male Sprague Dawley rats [2] (rat, in vivo, ip) is “elicits “PCP syndrome””. For the same compound, the IC50 in data set [3] was found to be 6.5 ± 0.94 µM. `NCCC1(c2ccccc2)C2CC3CC(C2)CC1C3` (centres unmarked) (as salt: hydrochloride) [Example 1, 2-[2-(2-Phenyl)adamantyl]ethylamine hydrochloride]: the melting point is 278 to 281 °C (dec.). On to `NCCC1(Cc2ccccc2)C2CC3CC(C2)CC1C3` (centres unmarked) (as salt: hydrochloride), for which the melting point fell in the range of 195.8 to 196.8 °C. On to `NCCC1(c2ccccc2)C2CC3CC(C2)CC1C3` (centres unmarked) [Example 1, 2-[2-(2-Phenyl)adamantyl]ethylamine hydrochloride], for which, in the data set with male Sprague Dawley rats [1], the “Minimum effective dose” value was found to be 20 mg/kg. Moreover, the “Elicitation of PCP syndrome” value with male Sprague Dawley rats [2] (rats, intraperitoneal, twenty minutes prior to test, groups of n=8, hydrochloride) is recorded as “no tendency to elicit “PCP syndrome.””. In addition, in data set [3], the IC50 turned out to be 1.09 ± 0.4 µM. For `CNC1(c2ccccc2Cl)CCCCC1=O` (centres unmarked) [Ketamine, reference compound], in the data set on male Sprague Dawley rats [1], the “Minimum effective dose” value is reported as 20 mg/kg. In addition, the “Elicitation of PCP syndrome” value with male Sprague Dawley rats [2] (rats, intraperitoneal, twenty minutes prior to test, groups of n=8) was “produces “PCP syndrome””. The IC50 in data set [3] was 6.51 ± 4.54 µM. Take `Cc1ccc(C2(CC(C)N)C3CC4CC(C3)CC2C4)cc1` (centres unmarked) (as salt: hydrochloride): the melting point lay within 344 to 346 °C. `NCCC1(c2cccs2)C2CC3CC(C2)CC1C3` (centres unmarked) (as salt: hydrochloride) [Example 2, 2-[2-[2-(2-Thienyl)]adamantyl]ethylamine hydrochloride] had a melting point of 250.6 to 251.9 °C. Consider `NCCC1(c2cccs2)C2CC3CC(C2)CC1C3` (centres unmarked) [Example 2, 2-[2-[2-(2-Thienyl)]adamantyl]ethylamine hydrochloride], for which the IC50 in data set [3] is 2.7 ± 0.54 µM.
